Records with an inconclusive call do not appear.
Tested on: C2C12 mouse myoblast viability, CellTiter-Glo ATP, 8-48 h
Assay: cytotoxicity in mouse C2C12 myoblasts – cell-based, CellTiter-Glo ATP luminescence, 8/24/48 h, dry powder, cytotoxicity control for HRAS target identification, dose response (AID 720603)

COc1ccc(N(C(=O)CCl)C(C(=O)NCCc2ccccc2)c2cccs2)cc1Cl (stereo unspecified)
AC50 (measured here: 8 h treatment): 17800 nM
AC50 (measured here: 24 h treatment): 108 nM
AC50 (measured here: 48 h treatment): 311 nM

C#CCCCC(=O)NCCOCCOCCOc1ccc(N(C(=O)CCl)C(C(=O)NCCc2ccccc2)c2cccs2)cc1Cl (stereo unspecified)
AC50 (measured here: 24 h treatment): 1330 nM
AC50 (measured here: 48 h treatment): 2620 nM

CC(C)(C)OC(=O)NCCOCCOCCOc1ccc(N(C(=O)CCl)C(C(=O)NCCc2ccccc2)c2cccs2)cc1Cl (stereo unspecified)
AC50 (measured here: 8 h treatment): 1380 nM
AC50 (measured here: 24 h treatment): 161 nM
AC50 (measured here: 48 h treatment): 388 nM

COC(=O)c1ccc([C@@H]2c3[nH]c4ccccc4c3C[C@@H](C(=O)OC)N2C(=O)CCl)cc1
AC50 (measured here: 8 h treatment): 597 nM
AC50 (measured here: 24 h treatment): 21.2 nM
AC50 (measured here: 48 h treatment): 80.6 nM

— PubChem BioAssay AID720603 (Broad Institute, 2013)
